# Tests used:
# HCV 1a replicon = test: HCV replicon, genotype 1a; type: cell-based
# HCV 3a chimera replicon = test: HCV replicon, 3a chimera; type: cell-based
# HCV 1b C316Y replicon = test: HCV resistant replicon 1b C316Y; type: cell-based
# HCV 5a chimera replicon = test: HCV replicon, 5a chimera; type: cell-based
# HCV 2a replicon = test: HCV replicon, genotype 2a; type: cell-based
# [1] = test system: MtDNA, HepG2 Hepatoma cells; test: Mitochondrial toxicity in HepG2 cells: mitochondrial DNA content; type: cell-based; conditions: HepG2 Hepatoma cells, 14 day assay; for % Inhibition MtDNA: 10 μM
# From the text: A real-time PCR assay to accurately quantify mitochondrial DNA content has been developed (see Stuyver L J, Lostia S, Adams M, Mathew J S, Pai B S, Grier J, Tharnish P M, Choi Y, Chong Y, Choo H, Chu C K, Otto M J, Schinazi R F. Antiviral activities and cellular toxicities of modified 2′,3′-dideoxy-2′,3′-didehydrocytidine analogs. Antimicrob. Agents Chemother. 2002; 46: 3854-60). This assay was used in all studies described in this application that determine the effect of nucleoside analogs on mitochondrial DNA content. In this assay, low-passage-number HepG2 cells were seeded at 5,000 cells/well in collagen-coated 96-well plates. Nucleoside monophosphate analogs were added to the medium to obtain final concentrations of 0 μM, 0.1 μM, 10 μM and 100 μM. On culture day 7, cellular nucleic acids were prepared by using commercially available columns (RNeasy 96 kit; Qiagen). […] The mitochondrial cytochrome c oxidase subunit II (COXII) gene and the β-actin or rRNA gene were amplified from 5 μl of the eluted nucleic acids using a multiplex Q-PCR protocol with suitable primers and probes for both target and reference amplifications. For COXII the following sense, probe and antisense primers are used, respectively: 5′-[…]-3′,5′-tetrachloro-6-carboxyfluorescein-[…]-TAMRA-3′ and 5′-[…]-3′. For exon 3 of the β-actin gene (GenBank accession number E01094) the sense, probe, and antisense primers are 5′-[…]-3′,5′-6-[…]-3′ and 5′-[…]-3′, respectively. The primers and probes for the rRNA gene are commercially available from Applied Biosystems. Since equal amplification efficiencies were obtained for all genes, the comparative CT method was used to investigate potential inhibition of mitochondrial DNA synthesis. The comparative CT method uses arithmetic formulas in which the amount of target (COXII gene) is normalized to the amount of an endogenous reference (the β-actin or rRNA gene) and is relative to a calibrator (a control with no drug at day 7). The arithmetic formula for this approach is given by 2-ΔΔCT, where ΔΔCT is (CT for average target test sample−CT for target control)−(CT for average reference test−CT for reference control) (see Johnson M R, K Wang, J B Smith, M J Heslin, R B Diasio. Quantitation of dihydropyrimidine dehydrogenase expression by real-time reverse transcription polymerase chain reaction. Anal. Biochem. 2000; 278:175-184). A decrease in mitochondrial DNA content in cells grown in the presence of drug would indicate mitochondrial toxicity.
# (§1) The effect of compounds 8b-up, 12, and 8a on nuclear or mitochondrial DNA, or lactic acid production, in HepG2 Hepatoma cells was analyzed over a 14 day period. The procedure outlined in section (i) above was used for this analysis.
# HCV 1b S282T replicon = test: HCV resistant replicon 1b S282T; type: cell-based
# HCV 1b M414I replicon = test: HCV resistant replicon 1b M414I; type: cell-based
# [2] = test system: HCV Replicon RNA in Huh 7 Clone B cells; test: HCV replicon assay; type: cell-based; conditions: HCV replicon assay
# Method: Huh 7 Clone B cells containing HCV Replicon RNA were seeded in a 96-well plate at 5000 cells/well, and the compounds tested at 10 μM in triplicate immediately after seeding. Following five days incubation (37° C., 5% CO2), total cellular RNA was isolated using the versaGene RNA purification kit from Gentra. Replicon RNA and an internal control (TaqMan rRNA control reagents, Applied Biosystems) were amplified in a single step multiplex Real Time RT-PCR Assay. The antiviral effectiveness of the compounds was calculated by subtracting the threshold RT-PCR cycle of the test compound from the threshold RT-PCR cycle of the no-drug control (ΔCt HCV). A ΔCt of 3.3 equals a 1-log reduction (equal to 90% less starting material) in Replicon RNA levels. The cytotoxicity of the compounds was also calculated using the ΔCt rRNA values. (2′-C-Me-C) was used as the control. To determine EC90 and IC50 values^2, ΔCt: values were first converted into a fraction of the starting material,^3 and then were used to calculate the % inhibition. The data on three compounds (Compound 12, Compound 8a, and compound 8b-up) is shown below in Table 3.
# HCV 1b replicon = test: HCV replicon, genotype 1b; type: cell-based
# HCV 4a chimera replicon = test: HCV replicon, 4a chimera; type: cell-based
# HCV 2b chimera replicon = test: HCV replicon, 2b chimera; type: cell-based
# [3] = Cytotoxicity assay, PBM cells; type: cell-based; conditions: human
# Method: (§2) The toxicity of the compounds was assessed in Vero, human PBM, CEM (human lymphoblastoid), and HepG2 cells, as described previously (see Schinazi R. F., Sommadossi J.-P., Saalmann V., Cannon D. L., Xie M.-Y., Hart G. C., Smith G. A. & Hahn E. F. Antimicrob. Agents Chemother. 1990, 34, 1061-67). Cycloheximide was included as positive cytotoxic control, and untreated cells exposed to solvent would be included as negative controls. The cytotoxicity IC50 was obtained from the concentration-response curve using the median effective method described previously (see Chou T.-C. & Talalay P. Adv. Enzyme Regul. 1984, 22, 27-55; Belen'kii M. S. & Schinazi R. F. Antiviral Res. 1994, 25, 1-11).
# [4] = Cytotoxicity assay, CEM cells; type: cell-based; conditions: human
# Method: as §2
# [5] = Cytotoxicity assay, Vero cells; type: cell-based; conditions: African green monkey
# Method: as §2
# [6] = test system: nuclear DNA, HepG2 Hepatoma cells; test: Mitochondrial toxicity in HepG2 cells: nuclear DNA content; type: cell-based; conditions: 10 μM; HepG2 Hepatoma cells, 14 day assay
# Method: This assay was used in all studies described in this application that determine the effect of nucleoside analogs on mitochondrial DNA content. In this assay, low-passage-number HepG2 cells were seeded at 5,000 cells/well in collagen-coated 96-well plates. […] On culture day 7, cellular nucleic acids were prepared by using commercially available columns (RNeasy 96 kit; Qiagen). […] The mitochondrial cytochrome c oxidase subunit II (COXII) gene and the β-actin or rRNA gene were amplified from 5 μl of the eluted nucleic acids using a multiplex Q-PCR protocol with suitable primers and probes for both target and reference amplifications. […] For exon 3 of the β-actin gene (GenBank accession number E01094) the sense, probe, and antisense primers are 5′-[…]-3′,5′-6-[…]-3′ and 5′-[…]-3′, respectively. The primers and probes for the rRNA gene are commercially available from Applied Biosystems. […] The comparative CT method uses arithmetic formulas in which the amount of target (COXII gene) is normalized to the amount of an endogenous reference (the β-actin or rRNA gene) and is relative to a calibrator (a control with no drug at day 7). The arithmetic formula for this approach is given by 2-ΔΔCT, where ΔΔCT is (CT for average target test sample−CT for target control)−(CT for average reference test−CT for reference control) (see Johnson M R, K Wang, J B Smith, M J Heslin, R B Diasio. Quantitation of dihydropyrimidine dehydrogenase expression by real-time reverse transcription polymerase chain reaction. Anal. Biochem. 2000; 278:175-184). A decrease in mitochondrial DNA content in cells grown in the presence of drug would indicate mitochondrial toxicity.
# as §1
# HepG2 Hepatoma cells = test: Lactic acid production in HepG2 cells; type: cell-based; conditions: 10 μM, 14 day assay
# Method: The effect on the growth of HepG2 cells was determined by incubating cells in the presence of 0 μM, 0.1 μM, 1 μM, 10 μM and 100 μM drug. Cells (5×10^4 per well) were plated into 12-well cell culture clusters in minimum essential medium with nonessential amino acids supplemented with 10% fetal bovine serum, 1% sodium pyruvate, and 1% penicillin/streptomycin and incubated for 4 days at 37° C. At the end of the incubation period the cell number was determined using a hemocytometer. Also taught by Pan-Zhou X-R, Cui L, Zhou X-J, Sommadossi J-P, Darley-Usmer V M. “Differential effects of antiretroviral nucleoside analogs on mitochondrial function in HepG2 cells” Antimicrob. Agents Chemother. 2000; 44: 496-503. […] At day 4 the number of cells in each well was determined and the culture medium collected. The culture medium was filtered, and the lactic acid content in the medium determined using a colorimetric lactic acid assay (Sigma-Aldrich). Since lactic acid product can be considered a marker for impaired mitochondrial function, elevated levels of lactic acid production detected in cells grown in the presence of 2,6-diamino 2′-C-Me purine nucleoside monophosphate prodrug analogs would indicate a drug-induced cytotoxic effect.
# The effect of compounds 8b-up, 12, and 8a on nuclear or mitochondrial DNA, or lactic acid production, in HepG2 Hepatoma cells was analyzed over a 14 day period. […]
# HepG2 cells = conditions: 10 μM; cited from earlier work
# adenosine deaminase = test: Adenosine deaminase assay; type: in vitro ADME; conditions: 7 minutes with 0.002 units of enzyme; 50 μM, pH 7.4, 25° C.
# Method: To determine the propensity for deamination of the nucleosides and monophosphate prodrugs by adenosine deaminase, nucleoside analogues can be incubated with the commercially available purified enzyme, and the reaction can be followed spectrophotometrically. Typical reaction conditions involve preparing a solution containing 50 μM nucleoside analog in 0.5 mL 50 mM potassium phosphate (pH 7.4) at 25° C. The typical reaction time is 7 minutes with 0.002 units of enzyme, and 120 minutes with 0.2 units of enzyme. (The unit definition of adenosine deaminase is one unit will deaminate 1.0 μmol of adenosine to inosine per minute at pH 7.5 at 25° C.) Deoxyadenosine is typically used as a positive control. Deoxyadenosine is 59% deaminated under the given conditions in 7 minutes with 0.002 units of enzyme. Deoxyguanosine is typically used as a negative control. Optical density can be measured at 265 nm or 285 nm. The difference in optical density between the beginning and the end of the experiment is divided by the extinction coefficient, and then multiplied by the volume of the reaction to determine the number of mols of substrate transformed into product. Mols of product would be divided by mols of substrate equivalent to a 100% complete reaction then multiplied by 100 to obtain percent deamination. The limit of detection is typically 0.001 optical density units.
smiles,measurement,setting,value
"CCOC(=O)CCc1ccccc1OP(=O)(NC(C)C(=O)OCC)OC[C@H]1O[C@@H](n2cnc3c(N)nc(N)nc32)C(C)(O)C1O (single isomer, unassigned) [Compound 8b-up]",Fold increase versus 1b WT at the EC90,HCV 1a replicon,++ (++ = 1.1 to 2)
same,Fold increase versus 1b WT at the EC90,HCV 3a chimera replicon,+ (+ = 0.1 to 1)
same,Fold increase versus 1b WT at the EC90,HCV 1b C316Y replicon,++ (++ = 1.1 to 2)
same,Fold increase versus 1b WT at the EC90,HCV 5a chimera replicon,++ (++ = 1.1 to 2)
same,Fold increase versus 1b WT at the EC90,HCV 2a replicon,++ (++ = 1.1 to 2)
same,effect on nuclear or mitochondrial DNA or lactic acid production,"[1]; up to 50 μM, summary also covers nuclear DNA and lactic acid",no significant effect
same,Fold increase versus 1b WT at the EC90,HCV 1b S282T replicon,+ (+ = 0.1 to 1)
same,Fold increase versus 1b WT at the EC90,HCV 1b M414I replicon,+++ (+++ = 2.1 to 3)
same,times more potent than 8b-down,[2],approximately 10
same,Fold increase versus 1b WT at the EC90,HCV 1b replicon,+ (+ = 0.1 to 1)
same,Fold increase versus 1b WT at the EC90,HCV 4a chimera replicon,+++ (+++ = 2.1 to 3)
same,Fold increase versus 1b WT at the EC90,HCV 2b chimera replicon,++ (++ = 1.1 to 2)
CCOC(=O)CCc1ccccc1OP(=O)(N[C@H](C)C(=O)OCC)OC[C@H]1O[C@@H](n2cnc3c(N)nc(N)nc32)C(C)(O)C1O (stereo partly shown) [drawing 54],CC50,[3]; PBM,> 100 µM
same,CC50,[4]; CEM,> 100 µM
same,CC50,[5]; Vero,> 100 µM
"Nc1ccn([C@H]2CC[C@@H](CO)O2)c(=O)n1 [ddC, reference compound]",% Inhibition MtDNA,[1],100%
same,% Inhibition nuclear DNA,[6],72%
same,Lactic acid levels (% of control) ± SD,HepG2 Hepatoma cells,220 ± 11 % of control
"O=c1[nH]c(=O)n([C@@H]2O[C@H](CO)[C@@H](O)[C@@H]2F)cc1I [fialuridine, 1,2′-deoxy-2′-fluoro-1-D-arabinofuranosly-5-iodo-uracil]",morphological changes in mitochondria (electron micrographs),HepG2 cells,presence of enlarged mitochondria with morphological changes consistent with mitochondrial dysfunction
CCOC(=O)[C@H](C)NP(=O)(OC[C@H]1O[C@@H](n2cnc3c(N)nc(N)nc32)C(C)(O)C1O)Oc1ccccc1 (stereo partly shown) [drawing 53],CC50,[3]; PBM,> 100 µM
same,CC50,[4]; CEM,> 100 µM
same,CC50,[5]; Vero,> 100 µM
Nc1ncnc2c1ncn2[C@H]1C[C@H](O)[C@@H](CO)O1 [Deoxyadenosine],percent deamination,adenosine deaminase,59%
"Nc1ccn([C@@H]2CS[C@H](CO)O2)c(=O)n1 [Compound 3TC, reference compound]",% Inhibition MtDNA,[1],<1/<1%
same,Lactic acid levels (% of control) ± SD,HepG2 Hepatoma cells,91 ± 2.5 % of control
CC1(O)C(O)[C@@H](CO)O[C@H]1n1cnc2c(N)nc(N)nc21 (stereo partly shown) [drawing 52],CC50,[3]; PBM cells,> 100 µM
same,CC50,[4]; CEM lymphoblastoid cells,> 100 µM
same,CC50,[5]; Vero cells,> 100 µM

# From patent US20140212382A1, “PURINE MONOPHOSPHATE PRODRUGS FOR TREATMENT OF VIRAL INFECTIONS” (EMORY UNIVERSITY, priority 2011, published 2014)
